# Results reported in US8975399B2, “Benzenesulfon amide-compound treatment of a pathological condition linked to an excessive effect of TNF” (priority 2010, dated 2015).
# Molecular target: T1, human TNF-alpha (Homo sapiens, UniProt P01375)
# T1 construct: purchased R & D Diagnostics
# Test: Apoptosis induced by human TNF-alpha on murine L929 cells (MTT survival)
# Format: cell-based
# Details: compound 10 μM, human TNF-alpha 0.150 ng/ml, 24 hours, % survival based on control cells without TNF
# Description: The compounds are dissolved in DMSO to be used in vitro or in vivo by oral route, and in Cremophor® for their use in vivo by intraperitoneal route.
# The cells were cultured in DMEM medium with 10% fcetal calf serum added. 4×10^4 cells in 100 μl of culture medium were exposed to human TNF-alpha (R & D Diagnostics) at 0.150 ng/ml for 24 hours in 96-well plates, and the tested compound was added at a final concentration of 100 μM or 10 μM. A solution of MTT dye was added (100 μl at 0.5 mg/ml) to each well over two hours in order to measure cell survival. The absorbance was measured at 570 nm using a BMG Fluostar microplate reader. The inhibitory activity of the products was expressed as a calculated % survival based on the control cells without the addition of TNF.
# T1 sequence (P01375 77-233 limits assumed): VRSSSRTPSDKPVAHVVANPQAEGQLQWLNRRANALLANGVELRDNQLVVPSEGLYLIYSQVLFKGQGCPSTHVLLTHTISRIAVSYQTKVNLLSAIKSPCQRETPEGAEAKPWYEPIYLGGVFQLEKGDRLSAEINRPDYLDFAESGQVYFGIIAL
row,Compound,% Inhibition 10 μM [%]
1,"COc1ccc(OC)c(N(CC(=O)Nc2cccc(C(C)=O)c2)S(=O)(=O)c2ccc(C)cc2)c1 [Compound 34, N˜1˜-(3-acetylphenyl)-N-˜2˜-(2,5-dimethoxyphenyl)-N˜2˜-[(4-methylphenyl)sulphonyl]glycinamide]",42.26
2,"Cc1ccc(CN(CC(=O)N2CCN(c3ccc(F)cc3)CC2)S(=O)(=O)c2ccccc2)cc1 [Compound 80, N-{2-[4-(4-fluorophenyl)-1-piperazinyl]-2-oxoethyl}-N-(4-methylbenzyl)benzenesulphonamide]",34.3
3,"Cc1ccc(S(=O)(=O)N(CC(=O)N2CCN(Cc3ccccc3)CC2)c2ccccc2C)cc1 [Compound 82, N-[2-(4-benzyl-1-piperazinyl)-2-oxoethyl]-4-methyl-N-(2-methylphenyl)benzenesulphonamide]",34.6
4,"Cc1ccc(S(=O)(=O)N(CC(=O)N2CCN(Cc3ccccc3)CC2)c2cc(C)cc(C)c2)cc1 [Compound 76, N-[2-(4-benzyl-1-piperazinyl)-2-oxoethyl]-N-(3,5-dimethylphenyl)-4-methylbenzenesulphonamide]",35.5
5,N-benzyl-4-methyl-N-[2-oxo-2-(4-phenyl-1-piperazinyl)pethyl]benzenesulphonamide [69 (18)],61.3
6,3-(4-fluorophenyl)-4-oxo-4H-chromen-7-ylN-[(4-methylphenyl)sulphonyl]-beta-alaninate [Compound 24],50.26
7,"COc1ccccc1N1CCN(C(=O)CN(Cc2ccccc2)S(=O)(=O)c2ccc(Br)cc2)CC1 [67 (15), N-benzyl-4-bromo-N-{2-[4-(2-methoxyphenyl)-1-piperazinyl]-2-oxoethyl}benzenesulphonamide]",61.8
8,"COC(=O)c1c(C)oc2ccc(NS(=O)(=O)c3ccc(OC)cc3)cc12 [Compound 2, methyl 5-{[(4-methoxyphenyl)sulphonyl]amino}-2-methyl-1-benzofuran-3-carboxylate]",57.51
9,"COc1ccc(S(=O)(=O)N(CC(=O)N2CCN(c3ccccc3)CC2)c2ccc(C)cc2)cc1OC [Compound 79, 3,4-dimethoxy-N-(4-methylphenyl)-N-[2-oxo-2-(4-phenyl-1-piperazinyl)ethyl]benzenesulphonamide]",36.8
10,"COc1ccc(NC(=O)CN(Cc2cccc(Cl)c2)S(=O)(=O)c2ccc(C)cc2)c(OC)c1 [Compound 33, N˜2˜-(3-chlorobenzyl)-N˜1˜-(2,4-dimethoxyphenyl)-N˜2˜-[(4-methylphenyl)sulphonyl]glycinamide]",52.4
11,"N-{2-[4-(diphenylmethyl)-1-piperazinyl]-2-oxoethyl}-N,4-dimethyl benzenesulphonamide [Compound 85]",32.1
12,"N-(1′,2-dihydroxy-1.2′-binaphthhalen-4′-yl)-4-methoxybenzene-sulphonamide [Compound 21]",53.45
13,"COc1ccc(S(=O)(=O)N(CC(=O)N2CCN(c3ccc(F)cc3)CC2)Cc2ccccc2)cc1OC [Compound 84, N-benzyl-N-{2-[4-(4-fluorophenyl)-1-piperazinyl]-2-oxoethyl}-3,4-dimethoxybenzenesulphonamide]",33.6
14,"CCOc1ccc(S(=O)(=O)Nc2cc3c(C(C)=O)c(C)oc3c3ccccc23)cc1 [16 (1), N-(3-acetyl-2-methylnaphthho[1,2-b]furan-5-yl)-4-ethoxybenzene sulphonamide]",80.40
15,N-[2-(4-benzyl-1-piperazinyl)-2-oxoethyl]-N-(4-chlorophenyl)-4-methyl benzenesulphonamide [68 (16)],56.2
16,"N-(1,2-dihydro-5-acenaphthhylenyl)-2.4,6-trimethylbenzenesulphonamide [Compound 26]",43.84

row,Compound,% Inhibition 10 μM [%]
1,"COc1ccc(S(=O)(=O)N(CC(=O)N2CCN(c3ccccc3OC)CC2)Cc2ccccc2)cc1C [32 (3), N-benzyl-4-methoxy-N-{2-[4-(2-methoxyphenyl)-1-piperazinyl]-2-oxoethyl}-3-methylbenzenesulphonamide]",69.73
2,N-[2-(4-benzyl-1-piperazinyl)-2-oxoethyl]-N-(3-chlorophenyl)-4-methyl benzenesulphonamide [65 (13)],61.4
3,"COc1ccc(S(=O)(=O)Nc2cc3c(C(C)=O)c(C)oc3cc2C)cc1 [Compound 1, N-(3-acetyl-2,6-dimethyl-1-benzofuran-5-yl)-4-methoxybenzene sulphonamide]",71.15
4,"COc1ccccc1N1CCN(C(=O)CN(Cc2ccccc2)S(=O)(=O)c2ccc(Cl)cc2)CC1 [66 (14), N-benzyl-4-chloro-N-{2-[4-(2-methoxyphenyl)-1-piperazinyl]-2-oxoethyl}benzenesulphonamide]",67.4
5,"COC(=O)c1c(C)oc2ccc(NS(=O)(=O)c3ccc(C)cc3)cc12 [Compound 3, methyl 2-methyl-5-{[(4-methylphenyl)sulphonyl]amino}-1-benzofuran-3-carboxylate]",48.09
6,"COc1ccc(S(=O)(=O)N(CC(=O)N2CCc3ccccc3C2)c2cc(C)cc(C)c2)cc1OC [Compound 78, N-[2-(3,4-dihydro-2(1H)-isoquinolinyl)-2-oxoethyl]-N-(3,5-dimethylphenyl)-3,4-d imethoxybenzenesulphonamide]",38.4
7,"Cc1ccc(-c2nnc(NCc3ccccc3)c3ccccc23)cc1S(=O)(=O)NCC1CCCO1 (stereo not shown) [Compound 23, 5-[4-(benzylamino)-1-phthalazinyl]-2-methyl-N-(tetrahydro-2-furanylmethyl)benzenesulphonamide]",44.74
8,"COc1ccccc1N1CCN(C(=O)CN(Cc2ccc(F)cc2)S(=O)(=O)c2ccc(Cl)cc2)CC1 [Compound 71, 4-chloro-N-(4-fluorobenzyl)-N-{2-[4-(2-methoxyphenyl)-1-piperazinyl]-2-oxoethyl}benzenesulphonamide]",53.6
9,"Cc1c(Cl)cccc1N(CC(=O)N1CCN(Cc2ccccc2)CC1)S(=O)(=O)c1ccccc1 [73 (23), N-[2-(4-benzyl-1-piperazinyl)-2-oxoethyl]-N-(3-chloro-2-methylphenyl)benzenesulphonamide]",44.8
10,"CC1CCN(C(=O)CN(Cc2ccc(Cl)c(Cl)c2)S(=O)(=O)c2ccc(Cl)cc2)CC1 [Compound 74, 4-chloro-N-(3,4-dichlorobenzyl)-N-[2-(4-methyl-1-piperidinyl)-2-oxoethyl]benzenesulphonamide]",45.6
11,N-{2-[4-(2-fluorophenyl)-1-piperazinyl]-2-oxoethyl}-N-(4-methylbenzyl) benzenesulphonamide [70 (19)],54.0
12,"Cc1ccc(S(=O)(=O)N(CC(=O)N2CCN(Cc3ccccc3)CC2)c2ccc(C)c(C)c2)cc1 [72 (21), N-[2-(4-benzyl-1-piperazinyl)-2-oxoethyl]-N-(3,4-dimethylphenyl)-4-methylbenzenesulphonamide]",53.4
13,"Cc1ccc(S(=O)(=O)N(CC(=O)N2CCC(Cc3ccccc3)CC2)c2ccc(F)cc2)cc1 [Compound 81, N-[2-(4-benzyl-1-piperidinyl)-2-oxoethyl]-N-(4-fluorophenyl)-4-methylbenzenesulphonamide]",34.8
14,"COc1ccc(S(=O)(=O)N(CC(=O)N2CCN(c3ccccc3F)CC2)Cc2ccccc2)cc1 [Compound 77, N-benzyl-N-{2-[4-(2-fluorophenyl)-1-piperazinyl]-2-oxoethyl}-4-methoxybenzenesulphonamide]",32.8
15,"COc1ccccc1N1CCN(C(=O)CN(Cc2ccccc2)S(=O)(=O)c2ccc(F)cc2)CC1 [Compound 75, N-benzyl-4-fluoro-N-{2-[4-(2-methoxyphenyl)-1-piperazinyl]-2-oxoethyl}benzenesulphonamide]",44.7
